We go through 13 compounds from ChEMBL document CHEMBL3046914, “Synthesis and anticancer effects of pongamol derivatives on mitogen signaling and cell cycle kinases” (Med Chem Res, 2012).

The subject of data set [1] is IMR-32. As to the kind of experiment: (§1) Cytotoxicity against Homo sapiens (human) IMR32 cells after 16 hr by MTT assay. It is filed as functional, cell-based. On the technique in general: Tetrazolium dyes change colour on reduction, which living cells bring about.
A short description of data set [2]: Cytotoxicity against fibroblasts.
Data set [3] deals with IMR-32. As to the kind of experiment: Cell cycle arrest in Homo sapiens (human) IMR32 cells assessed as decrease of G2-M phase cell accumulation at 20 to 200 uM by FACS analysis. It is filed as functional, cell-based. On the technique in general: Flow cytometry measures light scatter and fluorescence of single cells or particles in a stream.
The subject of data set [4] is HeLa. As to the kind of experiment: Cytotoxicity against Homo sapiens (human) HeLa cells after 16 hr by MTT assay. It is filed as functional.
Data set [5] deals with IMR-32. As to the kind of experiment: Cytotoxicity against Homo sapiens (human) IMR32 cells at 200 uM after 16 hr by MTT assay. It is filed as functional.
Data set [6] concerns the target Cyclin-dependent kinase 2 (Homo sapiens) (UniProt P24941). As to the kind of experiment: Destabilization of CDK2 in Homo sapiens (human) IMR32 cells by immunoblot analysis. The note with it: IMR-32. It is filed as cell-based. In general terms: A western blot detects proteins with antibodies after separation by electrophoresis.
Data set [7] shares this target. Nature of the data set: Destabilization of CDK2 in Homo sapiens (human) HeLa cells by immunoblot analysis. It is filed as cell-based.
For data set [8] the target is unchanged. As to the kind of experiment: Destabilization of CDK2 in Homo sapiens (human) Jurkat cells by immunoblot analysis. It is filed as cell-based.
Data set [9] concerns the target Mitogen-activated protein kinase 3 (Homo sapiens) (UniProt P27361). Nature of the data set: Destabilization of ERK1 in Homo sapiens (human) IMR32 cells by immunoblot analysis. The note with it: IMR-32. It is filed as cell-based.
Data set [10] has the same target. Nature of the data set: Destabilization of ERK1 in Homo sapiens (human) HeLa cells by immunoblot analysis. It is filed as cell-based.
Data set [11] shares this target. As to the kind of experiment: Destabilization of ERK1 in Homo sapiens (human) Jurkat cells by immunoblot analysis. The class given is cell-based.
For a further data set, the species on record is Homo sapiens. As to the kind of experiment: Inhibition of tyrosine kinase (unknown origin).
Data set [12] deals with HeLa. Nature of the data set: Cell cycle arrest in Homo sapiens (human) HeLa cells assessed as decrease of G2-M phase cell accumulation at 20 to 200 uM by FACS analysis. It is filed as functional, cell-based.
Data set [13] concerns Jurkat. As to the kind of experiment: Cell cycle arrest in Homo sapiens (human) Jurkat cells assessed as decrease of G2-M phase cell accumulation at 20 to 200 uM by FACS analysis. The class given is functional, cell-based.
Data set [14] concerns HeLa. Nature of the data set: Cell cycle arrest in Homo sapiens (human) HeLa cells assessed as decrease of G1 phase cell accumulation at 20 to 200 uM by FACS analysis. It is filed as functional, cell-based.
Data set [15] has as its system Jurkat. Nature of the data set: Cell cycle arrest in Homo sapiens (human) Jurkat cells assessed as decrease of G1 phase cell accumulation at 20 to 200 uM by FACS analysis. It is filed as functional, cell-based.
Data set [16] deals with Jurkat. Nature of the data set: Cytotoxicity against Homo sapiens (human) Jurkat cells after 16 hr by MTT assay. The class given is functional.
Data set [17] has as its system IMR-32. The data set is described as §1. It is filed as functional.
Data set [18] deals with IMR-32. Nature of the data set: Cell cycle arrest in Homo sapiens (human) IMR32 cells assessed as decrease of G1 phase cell accumulation at 20 to 200 uM by FACS analysis. It is filed as functional, cell-based.
For data set [19], the system named is IMR-32. Nature of the data set: Cytotoxicity against Homo sapiens (human) IMR32 cells at 20 to 200 uM after 16 hr by MTT assay. It is filed as functional, cell-based.
Data set [20] concerns IMR-32. As to the kind of experiment: Induction of endoplasmic reticulum stress in Homo sapiens (human) IMR32 cells assessed as Grp94 expression by immunoblot analysis. It is filed as functional, cell-based.
The test system of data set [21] is HeLa. Nature of the data set: Induction of endoplasmic reticulum stress in Homo sapiens (human) HeLa cells assessed as Grp94 expression by immunoblot analysis. It is filed as functional, cell-based.
Data set [22] has as its system Jurkat. As to the kind of experiment: Induction of endoplasmic reticulum stress in Homo sapiens (human) Jurkat cells assessed as Grp94 expression by immunoblot analysis. It is filed as functional, cell-based.

Calls of active or inactive are those of the source. No cut-off for these calls is given here.

Chain of Mitogen-activated protein kinase 3 (Homo sapiens) (P27361 whole entry): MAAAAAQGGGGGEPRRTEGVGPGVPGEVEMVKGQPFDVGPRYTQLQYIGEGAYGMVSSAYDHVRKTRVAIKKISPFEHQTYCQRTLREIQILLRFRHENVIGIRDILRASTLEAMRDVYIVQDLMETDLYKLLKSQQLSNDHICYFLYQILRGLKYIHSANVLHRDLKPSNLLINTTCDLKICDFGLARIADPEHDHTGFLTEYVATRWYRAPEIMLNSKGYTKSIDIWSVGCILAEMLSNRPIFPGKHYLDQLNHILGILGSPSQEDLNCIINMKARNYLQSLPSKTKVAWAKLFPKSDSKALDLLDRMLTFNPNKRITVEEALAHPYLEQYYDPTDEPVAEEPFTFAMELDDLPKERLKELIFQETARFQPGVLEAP

In the case of `COc1c(-c2cc(-c3ccccc3)n(-c3ccc(F)cc3)n2)ccc2occc12`, the Activity entry in the data set with IMR-32 [1] was “Dose-dependent effect”; in data set [2], “Non-toxic”. The result in the data set with IMR-32 [3] was inactive.
Take `COc1c(-c2cc(-c3ccccc3)on2)ccc2occc12`: the Activity with HeLa [4] is 26%; with IMR-32 [5] it was 60%; with IMR-32 [1], “Dose-dependent effect”; in data set [2], “Non-toxic”; in the data set with Jurkat [16], 31%; in the data set on IMR-32 [17], 58%. The outcome in data set [6], in data set [7], in data set [8], in data set [9], in data set [10] and in data set [11] was Active. In addition, the result in the data set with HeLa [12], with Jurkat [13], in the data set on HeLa [14], in the data set with Jurkat [15], in the data set on IMR-32 [3] and in the data set on IMR-32 [18] was Active. In addition, the inhibition result in the data set listed under Homo sapiens is “inactive”.
With `COc1c(-c2cc(-c3ccccc3)[nH]n2)ccc2occc12`, the results for the Activity result (in the data set on IMR-32 [1]; in data set [2]) were “Dose-dependent effect” and “Non-toxic”, respectively. The outcome with IMR-32 [3] was inactive.
For the compound `COc1c(-c2cc(-c3ccccc3)n(-c3ccccc3C)n2)ccc2occc12`, the Activity result with IMR-32 [1] is “Dose-dependent effect”; in data set [2], “Non-toxic”. In addition, in the data set on IMR-32 [3], the result was inactive. For the same compound, in the data set on IMR-32 [18], the result was Active.
On to `COc1c(-c2cc(-c3ccccc3)n(-c3ccc([N+](=O)[O-])cc3[N+](=O)[O-])n2)ccc2occc12`, for which the Activity entry in the data set with IMR-32 [1] was “Dose-dependent effect”; in [2], “Non-toxic”. Also, the result in the data set with IMR-32 [3] was inactive.
As for `COc1c(-c2cc(-c3ccccc3)n(-c3cccc([N+](=O)[O-])c3)n2)ccc2occc12`, the Activity result in the data set on IMR-32 [1] was “Dose-dependent effect”; in data set [2], “Non-toxic”. For the same compound, the outcome in the data set on IMR-32 [3] was inactive.
As to `COc1c(-c2cc(-c3ccccc3)n(-c3ccc(C)cc3C)n2)ccc2occc12`, the result in the data set with IMR-32 [19] and with IMR-32 [3] was inactive. For the same compound, in data set [2], the Activity entry was “Non-toxic”.
As for `COc1ccc(-n2nc(-c3ccc4occc4c3OC)cc2-c2ccccc2)cc1`, the result in the data set on IMR-32 [19] and in the data set on IMR-32 [3] was inactive. Further, the Activity entry in [2] was “Non-toxic”.
`COc1c(-c2cc(-c3ccccc3)n(-c3cccc(F)c3)n2)ccc2occc12`: the Activity in the data set with HeLa [4] is 28%; in the data set with IMR-32 [5] it was 60%; in the data set on IMR-32 [1] it was “Dose-dependent effect”; in [2], “Non-toxic”; in the data set with Jurkat [16] it was 35%; with IMR-32 [17] it was 86%. Also, the outcome (with IMR-32 [20]; with HeLa [21]; with Jurkat [22]; in data set [6]; in [7]; in data set [8]) was Active. In addition, the result (in data set [9]; in the data set on HeLa [12]; with Jurkat [13]; in the data set on HeLa [14]; with Jurkat [15]; in the data set on IMR-32 [3]) was Active. Moreover, the outcome with IMR-32 [18] was Active. In addition, in the data set listed under Homo sapiens, the inhibition entry was “inactive”.
Take `COc1c(-c2cc(-c3ccccc3)n(-c3ccc(Cl)cc3Cl)n2)ccc2occc12`: the outcome with IMR-32 [19] and in the data set on IMR-32 [3] was inactive. Moreover, the Activity result in data set [2] is “Non-toxic”.
For `COc1c(-c2cc(-c3ccccc3)n(-c3ccccc3)n2)ccc2occc12`, the result in the data set with IMR-32 [19] and in the data set on IMR-32 [3] was inactive. Also, the Activity entry in data set [2] is reported as “Non-toxic”.
`COc1c(-c2cc(-c3ccccc3)n(-c3ccccc3F)n2)ccc2occc12`: the Activity is 35% in the data set on HeLa [4]; 60% in the data set on IMR-32 [5]; “Dose-dependent effect” with IMR-32 [1]; “Non-toxic” in [2]; 45% in the data set with Jurkat [16]; 71% in the data set on IMR-32 [17]. The result (in data set [6]; in [7]; in data set [8]; in data set [10]; in the data set on HeLa [12]; in the data set on Jurkat [13]) was Active. For the same compound, the result with HeLa [14], in the data set on Jurkat [15] and in the data set on IMR-32 [18] was Active. Moreover, the inhibition entry in the data set filed under Homo sapiens was “inactive”. The result in the data set with IMR-32 [3] was inactive.
With `COc1c(C(=O)/C=C(\O)c2ccccc2)ccc2occc12` [PONGAMOL], the Activity in the data set on HeLa [4] is 23%; in data set [2], “Non-toxic”; in the data set with Jurkat [16] it was 17%; in the data set with IMR-32 [17] it was 38%. Also, in the data set with IMR-32 [19], the result was inactive. The result in the data set on IMR-32 [20], with HeLa [21], in the data set on Jurkat [22], in the data set with HeLa [12], in the data set with Jurkat [13] and in the data set on HeLa [14] was Active. The outcome in the data set on Jurkat [15] and in the data set on IMR-32 [3] was Active. In the data set listed under Homo sapiens, the inhibition entry was “inactive”.
